Reference: patent US20080299109A1, “MECHANISM OF ASTRICYTE-NEURON SIGNALING” (Korea Institute of Science and Technology, priority 2007, published 2008)

Biological target: T1, NR1/NR2A receptors (Homo sapiens, UniProt Q05586+Q12879)
T1 construct: expressed in transfected cells; host or cells: HEK 293 cells
Assay: Glutamate-induced currents in NR1/NR2A transfected HEK 293 cells, perforated patch
Format: cell-based
Conditions: 30 nM thrombin 30 s, −60 mV and +60 mV
Description: Whole-cell perforated-patch recording from cultured cortical neurons or HEK cells under voltage clamp (holding potential −60 mV) was made with an Axopatch 200B amplifier (Axon Instruments, Union City, Calif.). The recording chamber was continually perfused with a recording solution comprised of 150 mM NaCl, 3 mM KCl, 2 mM CaCl2, 5.5 mM glucose, and 10 mM HEPES (pH 7.4 by NaOH; osmolality adjusted to 315-320 mOsm with sucrose). Recording electrodes (4-7 MΩ) were filled with (in mM) 150 mM CsMeSO4, 10 mM NaCl, 0.5 CaCl2, 10 mM HEPES, and 25-50 μg/ml gramicidin D (pH adjusted to 7.3 with CsOH and osmolality adjusted to 310 mOsm with sucrose). It took 20-30 min to achieve acceptable perforation with series resistance ranging from 30-60 MΩ. All electrophysiological data from cultured neurons cells in this study were collected at room temperature (23-26° C.).
The external solution included 0.2 mM MgCl2, 2 mM CaCl2, 100 nM ZnCl2, and 50 μM glycine. […] The response from the same cell is shown after a treatment of 30 nM thrombin for 30 s. […] The peak amplitudes of glutamate-induced currents were compared before and after thrombin treatment at −60 mV and +60 mV holding potentials.

T1 sequence (Q12879 23-1464, other chains not shown): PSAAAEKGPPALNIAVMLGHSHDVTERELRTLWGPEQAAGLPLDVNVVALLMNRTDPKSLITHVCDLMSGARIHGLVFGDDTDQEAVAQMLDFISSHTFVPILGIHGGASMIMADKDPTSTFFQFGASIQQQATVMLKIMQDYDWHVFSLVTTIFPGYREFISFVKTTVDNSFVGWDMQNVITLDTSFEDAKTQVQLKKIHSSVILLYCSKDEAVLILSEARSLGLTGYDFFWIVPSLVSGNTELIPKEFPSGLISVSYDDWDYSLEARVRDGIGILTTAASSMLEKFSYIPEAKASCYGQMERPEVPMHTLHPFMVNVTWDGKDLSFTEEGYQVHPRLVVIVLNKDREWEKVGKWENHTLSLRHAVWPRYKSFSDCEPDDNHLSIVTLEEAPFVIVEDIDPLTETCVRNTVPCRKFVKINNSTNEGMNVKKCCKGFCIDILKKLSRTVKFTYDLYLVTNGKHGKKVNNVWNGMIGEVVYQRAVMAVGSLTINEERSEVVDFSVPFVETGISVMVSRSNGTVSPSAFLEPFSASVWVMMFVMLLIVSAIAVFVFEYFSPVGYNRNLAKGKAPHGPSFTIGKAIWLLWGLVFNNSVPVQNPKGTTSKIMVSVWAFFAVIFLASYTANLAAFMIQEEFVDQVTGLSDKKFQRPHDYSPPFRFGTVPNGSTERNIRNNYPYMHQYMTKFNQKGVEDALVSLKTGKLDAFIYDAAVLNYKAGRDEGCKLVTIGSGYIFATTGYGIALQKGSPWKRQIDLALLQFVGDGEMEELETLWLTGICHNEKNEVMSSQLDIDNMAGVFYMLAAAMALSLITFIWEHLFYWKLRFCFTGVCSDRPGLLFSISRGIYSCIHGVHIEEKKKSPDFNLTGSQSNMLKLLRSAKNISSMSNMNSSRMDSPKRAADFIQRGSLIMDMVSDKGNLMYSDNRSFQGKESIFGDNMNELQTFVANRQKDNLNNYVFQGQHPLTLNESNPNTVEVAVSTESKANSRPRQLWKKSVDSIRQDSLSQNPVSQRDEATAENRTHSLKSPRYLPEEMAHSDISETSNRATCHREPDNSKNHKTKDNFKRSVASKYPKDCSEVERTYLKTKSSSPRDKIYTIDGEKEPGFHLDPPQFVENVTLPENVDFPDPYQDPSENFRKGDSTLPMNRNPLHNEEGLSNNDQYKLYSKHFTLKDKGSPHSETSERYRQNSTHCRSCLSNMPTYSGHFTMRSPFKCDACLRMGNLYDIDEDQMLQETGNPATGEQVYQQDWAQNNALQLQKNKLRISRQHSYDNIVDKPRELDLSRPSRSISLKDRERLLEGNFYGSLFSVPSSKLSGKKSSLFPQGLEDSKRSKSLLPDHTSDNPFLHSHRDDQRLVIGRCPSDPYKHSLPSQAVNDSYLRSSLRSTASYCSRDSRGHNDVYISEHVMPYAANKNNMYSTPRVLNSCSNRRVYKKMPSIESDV

thrombin
glutamate-induced current profile before and after thrombin: no change
